Consider one compound from US20200383327A1, “METHOD OF IMPROVING PLANT PERFORMANCE” (The State of Israel, Ministry of Agriculture & Rural …, priority 2018, published 2020).

What all share (format): in vivo
A short description of test [1]: Mango fruit decay in cold storage after post-harvest treatment. As to the method:
FIGS. 19A-19G are images and graphs showing the effect of Phe solution on fruit post-harvest rotting under cold temperature resistance. (19A-19B) are images showing post-harvest control and treated mango fruits, respectively, stored in 7° C. […] (19C-19D) are vertical bar graphs showing indices of spots (19C) and pitting (19D) of mango fruits infected by Colletotrichum or Lasiodiplodia under 7° C. (19E-19G) are vertical bar graph showing […] decay was shown at 7° C., and side decay and total decay were shown at 7° C. and 10° C.
Mango fruits were treated with Phe solution post-harvest. Fruits were stored in either 7° C. or 10° C., and decay was inspected and documented. Post-harvest treatment as described hereinabove reduced stem decay, side decay, and total decay (FIGS. 19E-19G). […] Fruits were both treated with AAA and infested with […] post-harvest. […] (FIGS. 19C-19D).

The subject of test [2] is Tuta absoluta. Nature of the test: Tomato leaf miner damage on tomato plants, natural infestation in greenhouse. As to the method:
FIGS. 3A-3E are images and bar graphs showing the effect of 4 mM of phenylalanine applied by drenching or spraying on the severity of […] in tomato, 13 days post treatment. FIG. 3A—an image showing the damage caused by the tomato leaf miner, the insect moth Tuta absoluta on tomato leaflet. FIG. 3B—a vertical bar graph showing severity of damage of Tuta absoluta on tomato leaves treated with drench or spray of 4 mM solution phenylalanine. Disease was evaluated on a 0-100% severity of symptoms coverage and calculation of area under disease progress curve (AUDPC) 13 days after treatment. […] Symptoms incidence per plant was evaluated 30 days after treatment. […] FIG. 3C—a vertical bar graph showing the effect of 4 mM Phe solution on the incidence of tomato leaf miner on tomato plants. The Phe solution was applied by spraying and by drench on the tomato plants at 3 days before and 4 hours before incubation in the greenhouse. Infection was natural. FIG. 3D—a vertical bar graph showing the effect of 4 mM Phe solution on the incidence of tomato leaf miner on tomato plants. The Phe solution was applied by spraying and by drench on the tomato plants at 3 days before and 4 hours before incubation in the greenhouse. Infection was natural. Symptoms incidences per plant at large size and at smaller size (up to 1 cm) were evaluated 30 days after treatment. […] FIG. 3E—a vertical bar graph showing the effect of 4 mM Phe solution on the rate of tomato leaf miner symptoms on tomato plants. The Phe solution was applied by spraying and by drench on the tomato plants at 3 days before and 4 hours before incubation in the greenhouse. Infection was natural. Symptoms incidences per plant at large size and at smaller size (up to 1 cm) were evaluated 30 days after treatment and the percent of large symptoms was calculated.
Tomato plants were grown in pots in a nonheated greenhouse where temperatures were 17-32° C. […] Damage of the pest was evaluated according to a 0-100% severity scale where 0=no symptoms followed by a calculation of area under disease progress curve (AUDPC) 13 days after treatment.

The test system of test [3] is Tomato yellow leaf curl virus (TYLCV). Nature of the test: Tomato yellow leaf curl virus severity on tomato plants. The note with it: 4 mM Phe solution, spray and drench to root zone; AUDPC during 51 days; FIG. 13. As to the method:
FIG. 13 is a bar graph showing the effect of 4 mM solution on the severity of Tomato yellow leaf curl virus (TYLCV) on leaves of tomato plants. The Phe solution was applied by spraying and by drench on the tomato plants at 3 days before and 4 hours before incubation in the greenhouse close to TYLCV infected tomato plants. Infection was natural by the vector insect silverleaf white fly. Disease severity was evaluated on a scale of 0-100% severity of symptoms coverage during 51 days after treatment and it is expressed as the area under disease progress curve (AUDPC).
The effect of Phe on TYLCV Begomovirus on tomato plants was assessed. Tomato yellow leaf curl virus (TYLCV) is a DNA virus from the genus Begomovirus. The virus is transmitted by an insect vector the whitefly Bemisia tabaci, (silverleaf whitefly; sweet potato whitefly from the family Aleyrodidae). Plants infected are tomato and also eggplant, potato, tobacco, bean, and pepper. Virus infection causes stunting, reduction of leaf size, upward cupping/curling of leaves, chlorosis on leaves and flowers, and reduction of fruit production.

Test [4] deals with Powdery Mildew. The test can be described thus: Powdery mildew incidence per inflorescence in mango orchard sprayed during flowering. Particulars: application during orchard flowering; FIG. 23A. The text has this: FIGS. 23A-C: Effect of flowering application on disease incidence. Avocado and Mango cv. ‘Kent’ orchards were sprayed with fungicide (Pyrimethanil+Fludioxonil) or with phenylalanine during flowering. (FIG. 23A). Powdery Mildew incidence (percentage) per inflorescence in mango orchard. (FIG. 23B). Anthracnose incidence (percentage) on harvested mango stored at ambient temperature for 12 days. (FIG. 23CB). Anthracnose incidence (percentage) on harvested avocado stored at ambient temperature for 14 days.
Flowering is one of the more susceptible organs of the tree. Pathogenic fungi can penetrate during flowering and either infect the flower (e.g., powdery mildew) or endophytically colonize the stem and the fruit without causing any visible symptoms. Those fungi (e.g. Colletotrichum and Lasiodiplodia) become active during abiotic stress or during fruit ripening and cause fruit stem-end rot and anthracnose.

Test [5] is described as follows: Plant growth performance parameters after pre-harvest treatment. As to the method:
FIGS. 20A-20I are images and graphs showing the effects of Phe solution on plant growth performance parameters. (20A) is images of plants treated with 2 mM once or twice, once with 4 mM or non-treated (control). (20B-20C) are bar graphs showing plant height (20B) and the % increase in the plant height (20C) in treated and control plants. (20D-20E) are bar graphs showing the number of nodes per plant (20D) and the % increase in the number of nodes (20E) in treated and control plants. (20F-20G) are bar graphs showing the % increase in leaf length (20F) and the % increase in the leaf area (20G) in treated and control plants. (20H-20I) are bar graphs showing plant fresh (e.g., “wet”) weight […] and plant dry weight (20I) in treated and control plants.
Plant were treated with Phe solution pre-harvest, and growth performance parameters, including total height, total weight (“wet” and dry), number of nodes, leaf length, and leaf area were examined.

For `N[C@@H](Cc1ccccc1)C(=O)O` [Phe, Phenylalanine], in test [1] (post-harvest Phe solution, mango stored at 7° C. or 10° C., FIG. 19E), the Stem decay entry is “reduced”. Further, the Side decay result in test [1] (post-harvest Phe solution, mango stored at 7° C. or 10° C., FIG. 19F) was “reduced”. In addition, in test [1] (post-harvest Phe solution, mango stored at 7° C. or 10° C., FIG. 19G), the Total decay entry was “reduced”. In addition, in test [1] (post-harvest mango fruits stored in 7° C., FIGS. 19A-19B), the “Black spots on fruits, control versus treated” value is given as “Control fruits were shown to have substantially more black spots”. Besides, the “Severity of damage of the moth Tuta absoluta leaf miner on tomato leaves” value in test [2] (4 mM Phe solution, drench or spray, each treatment, FIG. 3C) is on record as “significantly suppressed”. The “Leaf miner symptoms, small (up to 1 cm long) and large” value in test [2] (4 mM Phe spray and Phe drench, 30 days after treatment, FIG. 3D) is reported as “suppressed”. Besides, in test [2] (4 mM Phe spray and drench, 30 days after treatment, FIG. 3E), the “Rate (in %) of larger leaf miner symptoms” value was “reduced”. In addition, the “Severity of Tomato yellow leaf curl virus on tomato plants canopy” value in test [3] is on record as “significantly suppressed”. Also, in test [4], the Mango powdery mildew entry was “reduced”. Moreover, the Plant height result in test [5] (2 mM or 4 mM of Phe vs control, FIGS. 20A-20C) is listed as “significantly higher than control”. For the same compound, the “Final weight at harvest, total "wet" weight” value in test [5] (Phe treated vs control, FIG. 20H) is listed as “significantly greater than control”. The “Final weight at harvest, total dry biomass” value in test [5] (Phe treated vs control, FIG. 20I) is recorded as “significantly greater than control”. For the same compound, the “Number of nodes on the plant's stem” value in test [5] (Phe treated vs control, FIGS. 20D-20E) is “increase in height was also correlated with the number of nodes”. Moreover, the Leaf length result in test [5] (control compared to plants treated with 4 mM Phe) is given as “control plants had significantly shorter leaves”. Moreover, the Leaf area entry in test [5] (control compared to plants treated with Phe, 2 mM or 4 mM once a week) is given as “reduced leaf area compared to those of plants treated with Phe”.
